# In patent publication US11958842B2, “Substituted phenazines and methods of treating cancer and bacterial diseases” (Adjutec Pharma AS, priority 2016, dated 2024):
# Read-outs that look alike come from different tables or passages of the source.
# What was measured:
# IPC-81 rat AML cells = test: Anti-AML activity, WST-1 viability (Example 72); format: cell-based; settings: IPC81, IPC-81 cells
# How it was run: (§1)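 Rat IPC-81 cells in DMEM with 10% horse serum and Molm13 cells in RPMI with 10% FBS, seeded at 150 000 cells/ml with compound dilution series. After 22 h exposure, WST-1 added for a further 2 h; absorbance read at 450 nm (620 nm reference) as viability.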
# Molm13 cells = test: Anti-AML activity, WST-1 viability (Example 72); format: cell-based; settings: Homo sapiens, Molm 13 cells, WST-1
# How it was run: as §1
compound,measurement,setting,value
"COc1cccc2c1[n+]([O-])c1cccc(O)c1[n+]2O [Example 5a, 1-hydroxy-6-methoxyphenazine 5.10-dioxide, reference compound]",IC50,"IPC-81 rat AML cells; 2% O2, 24 h of incubation, WST-1, read-out: IPC-81 IC50 2% O2",3200 nM
same,IC50,"IPC-81 rat AML cells; 20% O2, 24 h of incubation, WST-1, read-out: IPC-81 IC50 20% O2",2400 nM
same,IC50,"Molm13 cells; 2% O2, 24 h of incubation, read-out: Molm 13 IC50 2% O2",1100 nM
same,IC50,"Molm13 cells; 20% O2, 24 h of incubation, read-out: Molm 13 IC50 20% O2",1400 nM
